In patent US11091478B2 (Fochon Pharmaceuticals, Ltd., priority 2017, dated 2021) one finds IC50 data, which are given here for 15 molecules.

The structures appear in SMILES notation. Where two headings read alike, the source gives them in different places.

Assay [1] relates to DOHH2 cells. The assay is described as follows: Cell proliferation assay (MTS), DOHH2 cells, 120 h. It is filed as cell-based. The procedure, abridged: (§1)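 Treatment lasts 72 h for RS4;11 and 120 h for DOHH2 cells seeded at 5000 per well in serum-containing RPMI-1640. A 2 h MTS step, halted with 10% SDS, precedes dual-wavelength absorbance reading and IC50 fitting.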
Assay [2] concerns RS4;11 cells. Put plainly: Cell proliferation assay (MTS), RS4;11 cells, 72 h. The class given is cell-based. The procedure, abridged: as §1

As for `CC1(C)CCC(CN2CCN(c3ccc(C(=O)NS(=O)(=O)c4cc5c(c([N+](=O)[O-])c4)N[C@@H](C4CC4)CO5)c(Oc4cnc5[nH]ccc5c4)c3)CC2)=C(c2ccc(Cl)cc2)C1` [Example 2-114, (S)-2-((1H-pyrrolo[2,3-b]pyridin-5-yl)oxy)-4-(4-((4′-chloro-5,5-dimethyl-3,4,5,6-tetra-hydro-[1,1′-biphenyl]-2-yl)methyl)piperazin-1-yl)-N-((3-cyclopropyl-5-nitro-3,4-di-hydro-2H-benzo[b][1,4]oxazin-7-yl)sulfonyl)benzamide], the half-inhibitory concentration (IC50) (commonly the midpoint of a concentration-inhibition curve) in assay [1] (Homo sapiens, DOHH-2, 120 h) came out at 48 nM; in assay [2] (Homo sapiens, RS4-11, 72 h), 1 nM.

For the molecule `CC1(C)CCC(CN2CCN(c3ccc(C(=O)NS(=O)(=O)c4cc5c(c([N+](=O)[O-])c4)N[C@@H](CC#N)CO5)c(Oc4cnc5[nH]ccc5c4)c3)CC2)=C(c2ccc(Cl)cc2)C1` [Example 2-115, (S)-2-((1H-pyrrolo[2,3-b]pyridin-5-yl)oxy)-4-(4-((4′-chloro-5,5-dimethyl-3,4,5,6-tetra-hydro-[1,1′-biphenyl]-2-yl)methyl)piperazin-1-yl)-N-((3-(cyanomethyl)-5-nitro-3,4-di-hydro-2H-benzo[b][1,4]oxazin-7-yl)sulfonyl-yl)benzamide], the IC50 in assay [1] was determined as 38 nM; in assay [2] it was 6 nM.

`COC[C@H]1COc2cc(S(=O)(=O)NC(=O)c3ccc(N4CCN(CC5=C(c6ccc(Cl)cc6)CC(C)(C)CC5)CC4)cc3Oc3cnc4[nH]ccc4c3)cc([N+](=O)[O-])c2N1` [Example 2-116, (S)-2-((1H-pyrrolo[2,3-b]pyridin-5-yl)oxy)-4-(4-((4′-chloro-5,5-dimethyl-3,4,5,6-tetra-hydro-[1,1′-biphenyl]-2-yl)methyl)piperazin-1-yl)-N-((3-(methoxymethyl)-5-nitro-3,4-dihydro-2H-benzo[b][1,4]oxazin-7-yl)sulfonyl)benzamide]: the 50% inhibitory concentration (IC50) in assay [1] (Homo sapiens, DOHH-2, 120 h) is 83 nM; in assay [2] (Homo sapiens, RS4-11, 72 h), 16 nM.

Regarding `CC1(C)CCC(CN2CCN(c3ccc(C(=O)NS(=O)(=O)c4cc5c(c([N+](=O)[O-])c4)N[C@@H](COC(=O)N4CCOCC4)CO5)c(Oc4cnc5[nH]ccc5c4)c3)CC2)=C(c2ccc(Cl)cc2)C1` [Example 2-117, (R)-(7-(N-(2-((1H-pyrrolo[2,3-b]pyridin-5-yl)oxy)-4-(4-((4′-chloro-5,5-dimethyl-3,4,5,6-tetrahydro-[1,1′-biphenyl]-2-yl)methyl)piperazin-1-yl)benzoyl)sulfamoyl)-5-nitro-3,4-dihydro-2H-benzo[b][1,4]oxazin-3-yl)methyl morpholine-4-carboxylate], the IC50 in assay [1] (Homo sapiens, DOHH-2, 120 h) is 41 nM; in assay [2] (Homo sapiens, RS4-11, 72 h), 44 nM.

Regarding `COCC[C@H]1COc2cc(S(=O)(=O)NC(=O)c3ccc(N4CCN(CC5=C(c6ccc(Cl)cc6)CC(C)(C)CC5)CC4)cc3Oc3cnc4[nH]ccc4c3)cc([N+](=O)[O-])c2N1` [Example 2-118, (S)-2-((1H-pyrrolo[2,3-b]pyridin-5-yl)oxy)-4-(4-((4′-chloro-5,5-dimethyl-3,4,5,6-tetra-hydro-[1,1′-biphenyl]-2-yl)methyl)piperazin-1-yl)-N-((3-(2-methoxyethyl)-5-nitro-3,4-dihydro-2H-benzo[b][1,4]oxazin-7-yl)sulfonyl)benzamide], the IC50 in assay [1] (Homo sapiens, DOHH-2, 120 h) was determined as 649 nM; in assay [2] (Homo sapiens, RS4-11, 72 h) it was 11 nM.

Take `CC1(C)CCC(CN2CCN(c3ccc(C(=O)NS(=O)(=O)c4cc5c(c([N+](=O)[O-])c4)N[C@@H](CN4CCS(=O)(=O)CC4)CO5)c(Oc4cnc5[nH]ccc5c4)c3)CC2)=C(c2ccc(Cl)cc2)C1` [Example 2-121, (S)-2-((1H-pyrrolo[2,3-b]pyridin-5-yl)oxy)-4-(4-((4′-chloro-5,5-dimethyl-3,4,5,6-tetra-hydro-[1,1′-biphenyl]-2-yl)methyl)piperazin-1-yl)-N-((3-((1,1-dioxidothiomorpholino)methyl)-5-nitro-3,4-dihydro-2H-benzo[b][1,4]oxazin-7-yl)sulfonyl)benzamide]: the concentration for half-maximal inhibition (IC50) in assay [1] (Homo sapiens, DOHH-2, 120 h) stood at 48 nM; in assay [2] (Homo sapiens, RS4-11, 72 h) it was 36 nM.

Take `CC1(C)CCC(CN2CCN(c3ccc(C(=O)NS(=O)(=O)c4cc5c(c([N+](=O)[O-])c4)N[C@@H](CN4CCC(N=S(C)(C)=O)CC4)CO5)c(Oc4cnc5[nH]ccc5c4)c3)CC2)=C(c2ccc(Cl)cc2)C1` [Example 2-125, (S)-2-((1H-pyrrolo[2,3-b]pyridin-5-yl)oxy)-4-(4-((4′-chloro-5,5-dimethyl-3,4,5,6-tetra-hydro-[1,1′-biphenyl]-2-yl)methyl)piperazin-1-yl)-N-((3-((4-((dimethyl(oxo)-λ^6-sulfanyl-idene)amino)piperidin-1-yl)methyl)-5-nitro-3,4-dihydro-2H-benzo[b][1,4]oxa-zin-7-yl)sulfonyl)benzamide]: the IC50 amounted to 43 nM in assay [1] (Homo sapiens, DOHH-2, 120 h) and 19 nM in assay [2] (Homo sapiens, RS4-11, 72 h).

Turning to `CC1(C)CCC(CN2CCN(c3ccc(C(=O)NS(=O)(=O)c4cc5c(c([N+](=O)[O-])c4)N[C@H](CCN4CCS(=O)(=O)CC4)CO5)c(Oc4cnc5[nH]ccc5c4)c3)CC2)=C(c2ccc(Cl)cc2)C1` [Example 2-126, (R)-2-((1H-pyrrolo[2,3-b]pyridin-5-yl)oxy)-4-(4-((4′-chloro-5,5-dimethyl-3,4,5,6-tetra-hydro-[1,1′-biphenyl]-2-yl)methyl)piperazin-1-yl)-N-((3-(2-(1,1-dioxidothiomorpholino)ethyl)-5-nitro-3,4-dihydro-2H-benzo[b] [1,4]oxazin-7-yl)sulfonyl)benzamide], the IC50 in assay [1] (Homo sapiens, DOHH-2, 120 h) worked out at 11 nM; in assay [2] (Homo sapiens, RS4-11, 72 h), 5 nM.

As to `CN=S1(=O)CCN(CC[C@@H]2COc3cc(S(=O)(=O)NC(=O)c4ccc(N5CCN(CC6=C(c7ccc(Cl)cc7)CC(C)(C)CC6)CC5)cc4Oc4cnc5[nH]ccc5c4)cc([N+](=O)[O-])c3N2)CC1` [Example 2-127], the IC50 in assay [1] (Homo sapiens, DOHH-2, 120 h) was 42 nM; in assay [2] (Homo sapiens, RS4-11, 72 h), 23 nM.

On to `CCN=S1(=O)CCN(CC[C@@H]2COc3cc(S(=O)(=O)NC(=O)c4ccc(N5CCN(CC6=C(c7ccc(Cl)cc7)CC(C)(C)CC6)CC5)cc4Oc4cnc5[nH]ccc5c4)cc([N+](=O)[O-])c3N2)CC1` [Example 2-128, (R)-2-((1H-pyrrolo[2,3-b]pyridin-5-yl)oxy)-4-(4-((4′-chloro-5,5-dimethyl-3,4,5,6-tetra-hydro-[1,1′-biphenyl]-2-yl)methyl)piperazin-1-yl)-N-((3-(2-(1-(ethylimino)-1-oxido-1λ^6-thiomorpholino)ethyl)-5-nitro-3,4-di-hydro-2H-benzo[b][1,4]oxazin-7-yl)sulfonyl) benzamide], for which the half-inhibitory concentration (IC50) in assay [1] (Homo sapiens, DOHH-2, 120 h) is 28 nM; in assay [2] (Homo sapiens, RS4-11, 72 h), 20 nM.

Turning to `CC1(C)CCC(CN2CCN(c3ccc(C(=O)NS(=O)(=O)c4cc5c(c([N+](=O)[O-])c4)N[C@H](CCN4CCS(=O)(=NC6CC6)CC4)CO5)c(Oc4cnc5[nH]ccc5c4)c3)CC2)=C(c2ccc(Cl)cc2)C1` [Example 2-129, (R)-2-((1H-pyrrolo[2,3-b]pyridin-5-yl)oxy)-4-(4-((4′-chloro-5,5-dimethyl-3,4,5,6-tetra-hydro-[1,1′-biphenyl]-2-yl)methyl)piperazin-1-yl)-N-((3-(2-(1-(cylcopropylimino)-1-oxido-1λ^6-thiomorphlino)ethyl)-5-nitro-3,4-dihydro-2H-benzo[b][1,4]oxazin-7-yl)sulfanoyl)benzamide], the half-inhibitory concentration (IC50) in assay [1] (Homo sapiens, DOHH-2, 120 h) stood at 16 nM; in assay [2] (Homo sapiens, RS4-11, 72 h), 9 nM.

`COC(=O)N=S1(=O)CCN(CC[C@@H]2COc3cc(S(=O)(=O)NC(=O)c4ccc(N5CCN(CC6=C(c7ccc(Cl)cc7)CC(C)(C)CC6)CC5)cc4Oc4cnc5[nH]ccc5c4)cc([N+](=O)[O-])c3N2)CC1` [Example 2-130, methyl (R)-(4-(2-(7-(N-(2-((1H-pyrrolo[2,3-b]pyri-din-5-yl)oxy)-4-(4-((4′-chloro-5,5-dimethyl-3,4,5,6-tetrahydro-[1,1′-biphenyl]-2-yl)meth-yl)piperazin-1-yl)benzoyl)sulfamoyl)-5-nitro-3,4-dihydro-2H-benzo[b][1,4]oxazin-3-yl)ethyl)-1-oxido-1λ^6-thiomorpholin-1-ylidene)carbamate]: the IC50 was 26 nM in assay [1] (Homo sapiens, DOHH-2, 120 h) and 14 nM in assay [2] (Homo sapiens, RS4-11, 72 h).

With `CC1(C)CCC(CN2CCN(c3ccc(C(=O)NS(=O)(=O)c4cc5c(c([N+](=O)[O-])c4)N[C@H](CCN4CCC(N=S(C)(C)=O)CC4)CO5)c(Oc4cnc5[nH]ccc5c4)c3)CC2)=C(c2ccc(Cl)cc2)C1` [Example 2-131, (R)-2-((1H-pyrrolo[2,3-b]pyridin-5-yl)oxy)-4-(4-((4′-chloro-5,5-dimethyl-3,4,5,6-tetra-hydro-[1,1′-biphenyl]-2-yl)methyl)piperazin-1-yl)-N-((3-(2-(4-((dimethyl(oxo)-λ^6-sulfa-nylidene)amino)piperidin-1-yl)ethyl)-5-nitro-3,4-dihydro-2H-benzo[b][1,4]oxazin-7-yl)sulfonyl)benzamide], the IC50 in assay [1] (Homo sapiens, DOHH-2, 120 h) was 39 nM; in assay [2] (Homo sapiens, RS4-11, 72 h) it was 9 nM.

As for `CC1(C)CCC(CN2CCN(c3ccc(C(=O)NS(=O)(=O)c4cc5c(c([N+](=O)[O-])c4)N[C@@H](Cc4ccccc4)CO5)c(Oc4cnc5[nH]ccc5c4)c3)CC2)=C(c2ccc(Cl)cc2)C1` [Example 2-132, (S)-2-((1H-pyrrolo[2,3-b]pyridin-5-yl)oxy)-N-((3-benzyl-5-nitro-3,4-dihydro-2H-benzo [b][1,4]oxazin-7-yl)sulfonyl)-4-(4-((4′-chloro-5,5-dimethyl-3,4,5,6-tetrahydro-[1,1′-biphenyl]-2-yl)meth-yl)piperazin1-yl)benzamide], the half-maximal inhibitory concentration (IC50) in assay [1] (Homo sapiens, DOHH-2, 120 h) was found to be 28 nM; in assay [2] (Homo sapiens, RS4-11, 72 h), 2 nM.

Consider `CC1(C)CCC(CN2CCN(c3ccc(C(=O)NS(=O)(=O)c4cc5c(c([N+](=O)[O-])c4)N[C@@H](Cc4ccccn4)CO5)c(Oc4cnc5[nH]ccc5c4)c3)CC2)=C(c2ccc(Cl)cc2)C1` [Example 2-133, (S)-2-((1H-pyrrolo[2,3-b]pyridin-5-yl)oxy)-4-(4-((4′-chloro-5,5-dimethyl-3,4,5,6-tetra-hydro-[1,1′-biphenyl]-2-yl)methyl)piperazin-1-yl)-N-((5-nitro-3-(pyridin-2-ylmethyl)-3,4-dihydro-2H-benzo[b][1,4]oxazin-7-yl)sulfonyl)benzamide], for which the IC50 in assay [1] (Homo sapiens, DOHH-2, 120 h) worked out at 8 nM; in assay [2] (Homo sapiens, RS4-11, 72 h), 1 nM.
